# Reference: patent US12416008B2, “Compositions and methods of use for small-molecule regulation of CRISPR-Cas9 activity using RNA aptamers” (priority 2019, dated 2025)
# Marks after values point to notes of the source that are not given here.
# Columns and labels:
# [1] = test system: galK (site 1) and xylA (site 2); experiment: multiplexed gene editing with theophylline-regulated GU19-agRNA and 3MX-regulated A9-agRNA on one plasmid; format: cell-based, E. coli; details: 3-hour induction with 1 mM of a single ligand
# Description: A plasmid was designed that expressed a theophylline-regulated GU19-agRNA targeting galK1 and a 3-methylxanthine (3MX)-regulated A9-agRNA targeting the xylA gene. […] The plasmid construct was then used for a 3-hour induction with either 1 mM theophylline, 1 mM 3MX or a combination of the two and the transformed bacteria were plated on MacConkey agar that contained either galactose, xylose or both to assay editing of the galK and xylA genes with the red/white screen (FIG. 3D, FIG. 11).
# For the purpose of first adding theophylline and later 3MX to independently induce two different agRNAs, the protocol was slightly modified. First, the bacteria were prepared and transformed as in the original protocol, 1 mM theophylline was added to the media and the culture was shaken at 30° C. for three hours. Then, the culture was heat-shocked again at 42° C. for 15 minutes to induce expression of the lambda-red proteins again and 1 mM 3MX was added to the media. The culture was shaken at 37° C. for three hours and then plated.
# galK 1 site [2] = experiment: red/white colony screen of editing efficiency at the galK 1 site (CREATE recombineering); format: cell-based, E. coli MG1655; details: galK1 site; agRNAs A9 and GU19 (FIG. 2A)
# [3] = target: isolated aptamer (theophylline aptamer); details: theophylline binding; cited from earlier work
# galK 1 site [4] = experiment: red/white colony screen of editing efficiency at the galK 1 site (CREATE recombineering); format: cell-based, E. coli MG1655; details: for Editing Efficiency 1 mM Theo: induced for 3 hours with 1 mM theophylline; for Editing Efficiency no Theo: no theophylline, 3 hours recovery
# Description: Candidates from this enriched library were analyzed to inform an improved library design. After three selection/counterselection steps, cells were plated on M63 selection medium^20 and 150 colonies were picked. Each isolated candidate was then transformed into unedited E. coli to screen for theophylline-responsive constructs using a red/white colony assay to quantify the percentage of edited bacteria. Colonies with an unedited galK site appear red whereas edited colonies appear white (FIG. 5). The percentage of white colonies is considered the editing efficiency. Gene editing was induced as previously described with or without adding theophylline and the editing efficiencies were compared.
# The protocol established by Garst et al was mainly followed. LB containing kanamycin and chloramphenicol was inoculated with MGλ9 cells and grown overnight at 30° C. The stationary culture was diluted 100 fold in LB, containing chloramphenicol, kanamycin and 0.2% arabinose and grown to an OD600=0.4-0.6 in 25 mL LB. The culture was heat-shocked in a shaking waterbath at 42° C. for 15 minutes to induce expression of the lambda-red proteins from pSIM5. Then, the culture was washed in two volumes of ice-cold deionized water, resuspended in 500 μl deionized water and 50 μl of the cell suspension was electroporated with 200 ng of a CREATE plasmid that encodes gRNA and homology template. The transformants were recovered in 4 mL of LB, containing 0.2% arabinose and optionally 1 mM theophylline or 1 μM anhydrotetracycline (ATC), and shaken at 37° C. for 3 hours before plating on MacConkey Agar. To estimate the number of cfu, aliquots were plated on LB agar 1 hour after transformation.
# (§1) In order to assess the frequency of gene editing, a red/white screen was used to visualize the introduction of a stop codon into the galK gene by CREATE. The original CREATE protocol was used for inducing gene editing and after 3 hours of recovery (with or without the agRNA ligand) a series of dilutions of the cultures were plated on MacConkey Agar plates containing 1% galactose. Bacterial colonies with a mutated galK* site appear white on the plates, whereas non-edited colonies appear red. The editing efficiency could be calculated by dividing the number of edited colonies over the total number of colonies. By comparing the editing efficiency in presence versus absence of the ligand, a dynamic range of the in vivo activity could be determined.
# When screening the enriched libraries for switchable constructs, the transformants were recovered in 4 mL of LB broth, a dilution series was plated for every construct and the experiment was only carried out once due to the large volume of colonies screened (˜250 in total). When the constructs A9 and GU19 were characterized in detail, triplica of the experiment were carried out.
# xylA gene = experiment: red/white screen of editing at the xylA gene; format: cell-based, E. coli; details: 1 mM theophylline
# Description: (§2) Promising agRNA constructs were analyzed in further detail. […] The xylA gene was targeted with these 17 agRNAs to test whether a different spacer sequence affects the performance. Editing was quantified with the same red/white screen. […] To confirm sequence independence of those two agRNAs, they were used to edit three more alternative sites at the galK gene. […] Sequencing confirmed that the phenotypic change in the assay corresponded to a designed genomic edit (FIG. 7). The observation that a number of agRNAs only act at the selected galK1 site highlights that the CRISPR-Cas9 system can be selected to act at a single sequence, a feature that could be exploited for reducing off-target effects.
# as §1, with “Bacterial colonies with a mutated galK* site appear white on the plates, whereas non-edited colonies appear red.” left out
# [5] = test system: alternative sites at the galK gene; experiment: editing at three more alternative sites at the galK gene; format: cell-based, E. coli; details: with or without 1 mM theophylline
# Description: as §2
# as §1, with “Bacterial colonies with a mutated galK* site appear white on the plates, whereas non-edited colonies appear red.” left out
# [6] = target: T1, Streptococcus pyogenes Cas9 (Streptococcus pyogenes serotype M1, UniProt Q99ZW2); experiment: electrophoretic mobility shift assay (EMSA) of Cas9 binding to gRNAs; details: presence or absence of 250 μM theophylline
# T1 construct: host or cells: E. coli BL21 (DE3) Rosetta
# MGλ9 strain = experiment: transformation and editing efficiency, agRNAs activated with theophylline 1 hour after transformation (aptamer-protocol); format: cell-based, E. coli; details: theophylline added 1 hour after transformation; for increase in number of transformants: versus wt gRNA
# Description: FIGS. 3A-3D show aptamer-gRNAs enable high-throughput genome editing. FIG. 3A is a schematic showing the workflow of the aptamer-controlled gene editing. […] CFUs are colony forming units μg-1 DNA and per 4 mL of recovery media. […] Each dot represents a biological replicate and error bars indicate standard deviation from the mean. FIG. 3C is a schematic of the plasmid design used to enable multiplexed gene editing. The individual homology arms and agRNAs are identical to the ones previously described for the single-edit experiments. […] The values represent the average of three biological replicates.
# Equipped with temporally controllable agRNAs, the gene editing technology CREATE^10 was optimized. One major drawback of CRISPR-mediated bacterial gene editing technologies is cell death caused by dsDNA cuts^10, despite overexpression of λ-red proteins to increase the frequency of homologous repair. Without wishing to be bound by theory, it is hypothesized that the stress of transformation combined with rapid generation of dsDNA breaks synergistically leads to a high level of cell death. […] Although a low transformation efficiency is not a significant issue when creating a single edit with a defined sgRNA, it dramatically impacts the ability to transform a library of sgRNA plasmids to generate a population of bacteria with different edits. In this process, a portion of gRNAs from the library is expected to be non-functional due to errors in oligonucleotide synthesis, sgRNA misfolding, or inefficient targeting.
# LB containing kanamycin and chloramphenicol was inoculated with MGλ9 cells and grown overnight at 30° C. The stationary culture was diluted 100 fold in LB, containing chloramphenicol and kanamycin and grown to an OD600=0.4-0.6 in 25 mL LB. Then, the culture was washed in two volumes of ice-cold deionized water, resuspended in 500 μl deionized water and 50 μl of the cell suspension was electroporated with 200 ng of a CREATE plasmid that encodes gRNA and homology template. The transformants were recovered in 4 mL of LB, containing 0.2% arabinose and shaken at 30° C. for 1 hour. The culture was heat-shocked in a shaking waterbath at 42° C. for 15 minutes and 1 mM theophylline or 1 μM ATC was added to the culture. The culture was shaken at 37° C. for 3 hours before plating on MacConkey Agar. To estimate the number of cfu, aliquots were plated on LB agar 1 hour after transformation.
# galK1 site = experiment: co-transformation of targeting gRNA plasmid with non-targeting gRNA plasmid (simulated library); details: for # of unedited colonies carrying non-targeting gRNA plasmid: 16 unedited colonies picked, 20 ng non-targeting + 180 ng targeting plasmid, 1 mM theophylline; for percentage of edited cells: plasmid mixture 90% targeting galK1, 10% non-targeting (eGFP) gRNA
# T1 sequence (Q99ZW2 whole entry): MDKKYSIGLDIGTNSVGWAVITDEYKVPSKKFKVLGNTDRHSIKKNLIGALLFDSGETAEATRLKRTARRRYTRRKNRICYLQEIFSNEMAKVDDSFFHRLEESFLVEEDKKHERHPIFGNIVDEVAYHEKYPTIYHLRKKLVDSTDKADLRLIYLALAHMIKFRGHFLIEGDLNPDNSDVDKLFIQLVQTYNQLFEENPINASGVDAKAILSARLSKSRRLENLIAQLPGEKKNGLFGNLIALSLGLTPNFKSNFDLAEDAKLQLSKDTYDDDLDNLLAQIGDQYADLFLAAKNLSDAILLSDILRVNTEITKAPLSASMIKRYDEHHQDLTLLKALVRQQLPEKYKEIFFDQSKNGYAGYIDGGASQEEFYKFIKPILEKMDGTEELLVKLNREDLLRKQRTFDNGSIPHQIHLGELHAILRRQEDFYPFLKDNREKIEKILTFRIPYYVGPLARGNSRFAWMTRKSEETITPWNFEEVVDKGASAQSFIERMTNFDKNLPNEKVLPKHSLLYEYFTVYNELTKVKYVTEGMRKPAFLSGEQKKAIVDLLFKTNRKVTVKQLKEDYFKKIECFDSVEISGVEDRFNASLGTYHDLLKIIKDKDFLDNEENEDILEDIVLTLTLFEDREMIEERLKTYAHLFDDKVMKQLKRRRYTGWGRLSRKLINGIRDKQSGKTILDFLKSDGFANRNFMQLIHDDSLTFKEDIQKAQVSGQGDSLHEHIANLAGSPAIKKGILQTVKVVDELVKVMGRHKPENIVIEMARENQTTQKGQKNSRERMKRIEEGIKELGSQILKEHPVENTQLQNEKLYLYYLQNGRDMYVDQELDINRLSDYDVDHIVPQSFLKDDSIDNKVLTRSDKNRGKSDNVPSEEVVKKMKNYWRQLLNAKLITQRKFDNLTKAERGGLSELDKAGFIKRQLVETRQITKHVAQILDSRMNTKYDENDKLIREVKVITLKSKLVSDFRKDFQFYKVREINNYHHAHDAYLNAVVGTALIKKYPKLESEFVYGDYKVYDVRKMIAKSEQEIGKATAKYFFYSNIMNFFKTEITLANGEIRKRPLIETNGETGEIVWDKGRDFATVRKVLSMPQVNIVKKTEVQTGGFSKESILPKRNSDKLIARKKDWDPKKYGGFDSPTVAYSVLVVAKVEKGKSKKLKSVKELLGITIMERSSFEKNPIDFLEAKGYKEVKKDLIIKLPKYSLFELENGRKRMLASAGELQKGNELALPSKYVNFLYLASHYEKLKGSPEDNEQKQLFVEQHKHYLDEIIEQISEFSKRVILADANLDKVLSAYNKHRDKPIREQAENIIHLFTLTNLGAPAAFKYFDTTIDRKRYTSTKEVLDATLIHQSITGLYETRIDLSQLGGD
Molecule,editing of galK and xylA upon induction (in words) [1],dependence of editing efficiency on theophylline concentration and induction time (galK 1 site [2]),Kd [3],Editing Efficiency 1 mM Theo (galK 1 site [4]),Editing Efficiency no Theo (galK 1 site [4]),editing efficiency at xylA compared with galK1 (in words) (xylA gene),targetability of alternative galK sites (in words) [5],apparent binding affinity to the Cas9 protein [6],editing efficiencies (MGλ9 strain),increase in number of transformants (MGλ9 strain),# of unedited colonies carrying non-targeting gRNA plasmid (galK1 site),percentage of edited cells (galK1 site)
"Cn1c(=O)[nH]c(=O)c2nc[nH]c21 [3MX, 3-methylxanthine]",induced mostly editing of xylA and to a lesser extent galK,–,–,–,–,–,–,–,–,–,–,–
Cn1c(=O)c2[nH]cnc2n(C)c1=O [theophylline],induced editing of the galK gene but not the xylA gene,increased with the concentration of theophylline and induction time,400 nM,–,–,–,–,–,–,–,–,–
"A9: agRNA cassette TGAAGGCCGCAACA, SEQ ID NO: 5 (chemistry not given here)",–,–,–,81%**,9%**,editing efficiency at xylA similar to the galK1 site used during selection,Only one of those sites was not targetable,"the same apparent binding affinity to the Cas9 protein as the wild type gRNA, independent of theophylline",~80%,10^4 fold,9/16,81%
"GU19: agRNA cassette GATCGGCCATAGAT, SEQ ID NO: 51 (chemistry not given here)",–,–,–,64%**,3%**,editing efficiency at xylA similar to the galK1 site used during selection,"more site-dependent, but also showed less background activity","the same apparent binding affinity to the Cas9 protein as the wild type gRNA, independent of theophylline",~80%,10^4 fold,6/16,63%
